The values below come from article PMC3664642, “A Peptide against Soluble Guanylyl Cyclase α1: A New Approach to Treating Prostate Cancer” (PLoS ONE, 2013).

Structures are written as SMILES. “Also recorded” adds a separate entry of the source.

In data set [1] the test system is LNCaP cells. The data set can be described thus: Dependence of cytotoxicity on NO signaling, LNCaP cells (MTT). It counts as cell-based. The following applies: for effect of C-PTIO on cytotoxicity of Peptide A-8R: Fig. S1D. The protocol:
(§1) For proliferation, cells were grown in medium containing 2% FBS extracted with dextran-coated charcoal (DCC). 48 hours later, ethanol or 1 nM R1881 was added to the cells followed by peptide treatment. The MTT assay (Sigma) was used as before to determine cell number. For apoptosis, 5000 cells were seeded in 96-well plates and treated with Vehicle (DMSO), Peptide A-8R (25 µM), Etoposide (50 µM) (Sigma) at different time points. The Caspase (3/7) activity was measured using Apo-ONE Homogeneous Caspase-3/7 assay kit (Promega). PARP cleavage was also used to measure apoptosis, and is described below.
(§2) (A) Whole-cell extracts from LNCaP cells treated with Vehicle, Peptide A-8R, or C-8R were subjected to IP using an anti-sGCα1 or anti-sGCβ1 antibody and then probed by Western blotting for sGCα1 (Upper) or sGCβ1 (Lower). Input represents amount of sGCα1 or sGCβ1 found in extracts. (B) LNCaP cells grown in the absence or presence of 1 nM R1881 were treated with Vehicle, 20 µM Peptide A-8R, 20 µM C-8R, or 8-Br-cGMP and monitored for cGMP levels using the cGMP E1A kit (Enzo Life Sciences). (C) LNCaP cells grown in the absence or presence of 8-Br-cGMP were treated with Vehicle, Peptide A-8R, or ODQ and monitored for cell density using the MTT assay. (D) LNCaP cells were treated with Vehicle or different concentrations of Peptide A-8R and C-PTIO and monitored for cell density. Bar graphs represent averages of three independent experiments plus standard deviations. Asterisks indicate statistical significance (P<0.04). (TIF) Click here for additional data file.

Data set [2] deals with Caspase 3/7 activity in LNCaP cells. The data set can be described thus: Caspase 3/7 assay, LNCaP cells. The following applies: Peptide 10 µM, Etoposide 20 µM, 24 hrs, Fig. 5A. It is filed as cell-based. The protocol:
as §1
Figure 5 Peptide A-8R induces apoptosis of prostate cancer cells. (A) LNCaP, (B) PC-3, or (C) Cos cells were treated with Vehicle, Peptide A-8R (10 µM), or Etoposide (20 µM) for 0–24 hrs and subjected to a Caspase assay to measure apoptosis. Bar graphs represent averages of three independent experiments plus standard deviations. All activities are relative to the first condition, and this activity was set to 1. Asterisks indicate statistical significance (P<0.005). (D) LNCaP cells were treated with Vehicle, Peptide C-8R, Peptide A-8R, or Etoposide (each drug at 50 µM) for 8 hrs and monitored for apoptosis by measuring PARP cleavage using Western blotting. Note that β-actin was used to control for protein loading.
Supplementary file pone.0064189.s005.tif: Figure S5 ROS generation is not induced by Peptide A-8R in PC-3 cells and Peptide C-8R in LNCaP cells. (A) PC-3 cells were treated with Vehicle or different concentrations of Peptide A-8R or Peptide C-8R, as shown, or (B) LNCaP cells were treated with Vehicle or different concentrations of Peptide A-8R or Peptide C-8R, or H2O2 and monitored for ROS generation after 0–30 (A) or 30 (B) min. (C) LNCaP cells were treated with Vehicle, Peptide C-8R (10 µM), Peptide A-8R (10 µM), or Etoposide (100 µM) for 0–8 hrs and subjected to a Caspase assay to measure apoptosis. Bar graphs represent averages of three independent experiments plus standard deviations. (C) All activities are relative to the first condition, and this activity was set to either 1. Asterisks indicate statistical significance (P<0.006) of all values compared to Vehicle (B) or to 0 hour (C). (TIF) Click here for additional data file.

Data set [3] concerns LNCaP cells. The data set can be described thus: Proliferation/cytotoxicity, LNCaP cells (MTT). It is filed as cell-based. Conditions: PI3K-AKT inhibitor; MTT; Fig. S3A; averages of three independent experiments. As to the method: LNCaP, C81, PC-3 and Cos cells were grown as previously described. CWR-22Rv1 cells were cultured in RMPI-1640 medium with 10% FBS and 50 µg/ml Gentamicin (Gibco). Control siRNA, sGCα1 siRNA and AKT siRNA (Dharmacon) at 50 nM final concentration was transfected into cells using Lipofectamine siMAX (Invitrogen).
as §1
(A) Four peptides were designed targeting sGCα1, with each peptide containing eight arginines at the C-terminus for membrane translocation. (B) LNCaP cells were grown in 10% serum under different concentrations of the four peptides, as shown. Cell number was measured after 0–4 days of incubation. Data points represent averages of three independent experiments plus standard deviations. Asterisks indicate statistical significance (P<0.0002) of Peptide A activity, relative to Vehicle.
Figure 2 Peptide A-8R interacts with sGCα1 in prostate cancer cells. (A) LNCaP cells were treated with 25 µM Biotin-labeled Peptide A-8R for 2 hrs and subjected to immunocytochemistry using anti-sGCα1 or anti-Biotin antibody to measure subcellular co-localization of endogenous sGCα1 and Peptide A-8R. DAPI was used to stain nuclei. (B) LNCaP cytosolic extracts were incubated with Peptide A-8R-Biotin and subjected to purification using streptavidin-agarose. This pull-down experiment was repeated with competing excess amount of unlabeled Peptide C-8R or Peptide A-8R. […] Co-purified Peptide A-8R-FITC was quantified by measuring fluorescence signal emission. […] Cell number was measured after 0–48 hrs of incubation. […]

In the next data set the test system is DNA damage in C81 cells. Briefly: Comet assay (DNA damage). The following applies: 5 mM NAC, 2-hour pretreatment; Fig. 4C. It counts as cell-based. As to the method: C81 cells were treated with Peptide A-8R for 1 hour, following a 2-hour pretreatment with 5 mM NAC or Vehicle, and trypsinized, and mixed with Comet LM-Agarose (CometAssay, […]) and transferred to slides. Electrophoresis and Sybr-Green staining was carried out according to manufacturer’s protocol.
(§3) Figure 4 Peptide A-8R kills prostate cancer cells by mediating ROS generation. (A) C81 cells were treated with Vehicle or different µMolar concentrations of Peptide A-8R and without or with 0–5 mM NAC and monitored for ROS generation after 0–30 min as measured by fluorescence intensity (FI). Bar graphs represent averages of three independent experiments plus standard deviations. Note that asterisks on bar graphs found with NAC are compared to equivalent data without NAC. (B) C81 cells were treated with Vehicle or different concentrations of Peptide A-8R, as shown, and 0–5 mM NAC, as shown, and monitored for cell number after 0–6 days of incubation as measured by MTT assay. Data points represent averages of three independent experiments plus standard deviations. Asterisks indicate statistical significance (P<0.04). (C) C81 cells were treated with Vehicle or different concentrations of Peptide A-8R, as shown, and with or without 5 mM NAC, as shown, and monitored DNA damage after 1 hr incubation as measured by Comet assay.

Data set [4] deals with C81 cells. Briefly: NAC rescue of proliferation of Peptide A-8R-treated cells (MTT). It is filed as cell-based. Conditions: for NAC rescue of proliferation: C81, NAC 1 or 5 mM, 2 h pretreatment, 0–6 days. As to the method: as §1
Intracellular ROS levels were evaluated using the fluorescent probe 5-(and-6)-chloromethyl-2′,7′-dichlorodihydrofluorescein diacetate (CM-H2DCFDA) (Invitrogen). After treatments with Peptide A-8R, C81 cells were loaded with 20 µM CM-H2DCFDA and incubated at 37°C for 30 min in the dark. Cells were then washed with PBS and fluorescence was measured at the excitation and emission wavelengths of 490 and 535 nm, respectively, using a multi-well fluorescence plate reader. For NAC (N-acetyl cysteine) (Sigma) rescue experiment, cells were pretreated with 1 or 5 mM NAC for 2 hours before adding Peptide A-8R.
as §3

The subject of data set [5] is C81 cells. Briefly: DAPI DNA staining, C81 cells. It is filed as cell-based. Conditions: 5 mM NAC, 2 hrs, Fig. S6. As to the method: C81 cells were first treated with or without 5 mM NAC for 2 hrs and then Vehicle or different concentrations of Peptide A-8R, as shown, for 1 hr and stained with DAPI. Phase contrast images are shown. (TIF) Click here for additional data file.

A further data set has as its system sGC. Briefly: cGMP levels in LNCaP cells (ELISA). It is filed as cell-based. The following applies: 1 nM R1881 absent or present, 20 µM peptide, cGMP EIA kit, Fig. S1B. As to the method: as §2
For orientation: An ELISA detects its analyte on a solid surface through an enzyme-linked reagent.

For a further data set, the system named is tumor cell. The following applies: ref [16], [17]; cited from earlier work. From the text:
In view of the rapid cytotoxicity induced by Peptide A (data not shown), we examined the possibility that ROS was involved.

As for `CC1(C)N([O])C(c2ccc(C(=O)O)cc2)=[N+]([O-])C1(C)C` [C-PTIO], the “effect of C-PTIO on cytotoxicity of Peptide A-8R” value with LNCaP cells [1] (Peptide A-8R at 50 µM) was “interestingly not 50 µM”; with LNCaP cells [1] (Peptide A-8R at 10 and 25 µM, P<0.04) it was “enhanced rather than relieved the cytotoxicity of Peptide A-8R at 10 and 25 µM”.
As for `COc1cc([C@@H]2c3cc4c(cc3[C@@H](O[C@@H]3O[C@@H]5CO[C@@H](C)O[C@H]5[C@H](O)[C@H]3O)[C@H]3COC(=O)[C@H]23)OCO4)cc(OC)c1O` [Etoposide, reference compound], the “Caspase 3/7 activity” value in data set [2] was “induced similar levels of Caspase activity as did Peptide A-8R, but only after 24 hrs of treatment”.
In the case of `O=c1cc(N2CCOCC2)oc2c(-c3ccccc3)cccc12` [LY294002, reference compound], the LNCaP cell proliferation entry with LNCaP cells [3] is “dramatically repressed LNCaP cell proliferation”.
In the case of `CC(=O)N[C@@H](CS)C(=O)O` [NAC, N-acetyl cysteine], in the data set with DNA damage in C81 cells, the “inhibition of Peptide A-8R-induced DNA damage” value is given as “completely blocked”. The “NAC rescue of proliferation” value with C81 cells [4] (10 µM Peptide A-8R, Fig. 4B (P<0.04)) is listed as “able to completely rescue the proliferation”; with C81 cells [4] (25 µM Peptide A-8R, Fig. 4B (P<0.04)), “nearly completely”; in the data set on C81 cells [4] (50 µM Peptide A-8R, Fig. 4B), “failed to significantly rescue the growth; also recorded: only marginally rescued”. The “NAC rescue (discussion)” value in the data set on C81 cells [4] (10 and 25 µM Peptide A-8R) is listed as “strong rescue”. For the same compound, in the data set on C81 cells [5], the “effect of NAC on cells treated with 50 µM Peptide A-8R (DAPI)” value is given as “had no effect”.
For the compound `Nc1nc2c(nc(Br)n2[C@@H]2O[C@@H]3COP(=O)(O)O[C@H]3[C@H]2O)c(=O)[nH]1` [Peptide 8-Br-cGMP], the “effect of added agent on Vehicle- or Peptide A-8R-treated cells (cell density)” value with LNCaP cells [1] (MTT, Fig. S1C) is given as “had no effect on Vehicle- or Peptide A-8R-treated cells”. The “rescue of ODQ-treated cells (cell density)” value with LNCaP cells [1] (MTT, ODQ-treated, Fig. S1C) is listed as “able to partially rescue cells treated with the sGC enzyme inhibitor ODQ”.
With `C[C@]1(O)CC[C@H]2[C@@H]3CCC4=CC(=O)CCC4=C3C=C[C@@]21C` [Peptide R1881, reference compound], the cGMP levels result in the data set on sGC is on record as “markedly elevated cGMP levels”.
As to `N.N.[Cl][Pt][Cl]` [cisplatin], in the data set on tumor cell, the “tumor cell death by elevating ROS” value is “induce tumor cell death by elevating levels of reactive oxygen species”.
Turning to `COc1cccc2c1C(=O)c1c(O)c3c(c(O)c1C2=O)C[C@@](O)(C(=O)CO)C[C@@H]3O[C@H]1C[C@H](N)[C@H](O)[C@H](C)O1` [doxorubicin], the “tumor cell death by elevating ROS” value with tumor cell is recorded as “induce tumor cell death by elevating levels of reactive oxygen species”.
